Biological target: T1, neutrophil elastase (Homo sapiens, UniProt P08246)
T1 sequence (P08246 30-247 limits assumed): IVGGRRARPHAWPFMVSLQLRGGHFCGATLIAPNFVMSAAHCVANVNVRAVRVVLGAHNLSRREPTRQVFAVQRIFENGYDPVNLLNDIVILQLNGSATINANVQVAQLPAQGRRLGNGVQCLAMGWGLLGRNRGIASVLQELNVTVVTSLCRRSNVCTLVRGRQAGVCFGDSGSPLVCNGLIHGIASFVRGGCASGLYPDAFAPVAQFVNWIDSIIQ
Assay: Human Neutrophil Elastase Assay
Format: biochemical
Set-up: purchased Calbiochem 324681
Settings: substrate MeOSuc-Ala-Ala-Pro-Val-AMC, pH 7.5, room temperature
Protocol: Human Neutrophil Elastase Assay
Materials: Human neutrophil elastase was purchased from Calbiochem (Cat.No.: 324681) and the elastase substrate MeOSuc-Ala-Ala-Pro-Val-AMC from Bachem (Cat.No.: I-1270). All other materials were of the highest grade commercially available.
The following buffers were used: Compound buffer: 100 mM Tris, 500 mM NaCl, adjusted to pH 7.5; Assay buffer: 100 mM Tris, 500 mM NaCl, adjusted to pH 7.5, containing 0.01% BSA.
Assay conditions: Test compounds were prediluted in DMSO and subsequently in compound buffer (5% DMSO final). 5 μL of these compound dilutions were mixed with 10 μl Neutrophil elastase (9 ng/ml in assay buffer) in a black 384 well OptiPlate (Perkin Elmer, Cat No.: 6007270) and incubated for 15 min at room temperature. Subsequently 10 μL substrate solution in assay buffer were added (250 nM final concentration) and the plates were incubated for 60 min at room temperature. After inactivation of the enzyme, fluorescence intensities were measured at 380 nm excitation and 460 nm emission wavelengths.
Each plate contains wells with a high value control (DMSO+enzyme+substrate) and wells with a low value control (DMSO+inactivated enzyme+substrate). IC50 values were estimated using a sigmoidal concentration response curve with variable slope. Means of low values were taken as 0%, means of high values as 100%.

Compared with CN(Cc1ccccc1)C(=O)CN1C(=O)N(c2cccc(C(F)(F)F)c2)C2=C(C(=O)CCC2)C1c1ccc(C#N)cc1 (stereo not drawn) [Example 36.47], CN(Cc1cnn(C)c1)C(=O)CN1C(=O)N(c2cccc(C(F)(F)F)c2)C2=C(C(=O)CCC2)C1c1ccc(C#N)cc1 (stereo not drawn) [Example 36.54] is 4.8-fold lower in IC50: 13.8 nM for the first, 2.9 nM for the second.

First: N#Cc1ccc(C2C3=C(CCCC3=O)N(c3cccc(C(F)(F)F)c3)C(=O)N2CC(=O)N2CCn3cccc3C2)cc1 (stereo not drawn) [Example 36.48]
Second: N#Cc1ccc(C2C3=C(CCCC3=O)N(c3cccc(C(F)(F)F)c3)C(=O)N2CC(=O)N2CCn3cncc3C2)cc1 (stereo not drawn) [Example 36.49]
The IC50 of the first is 2.4-fold higher: 6.2 nM for the first, 2.6 nM for the second.

First: N#Cc1ccc(C2C3=C(CCCC3=O)N(c3cccc(C(F)(F)F)c3)C(=O)N2CC(=O)N2CCn3nccc3C2)cc1 (stereo not drawn) [Example 36.51]
Second: N#Cc1ccc(C2C3=C(CCCC3=O)N(c3cccc(C(F)(F)F)c3)C(=O)N2CC(=O)N2CCc3cnccc3C2)cc1 (stereo not drawn) [Example 36.64]
The IC50 of the first is 3.3-fold lower: 1.7 nM for the first, 5.6 nM for the second. The first is the more potent here.

N#Cc1ccc(C2C3=C(CCCC3=O)N(c3cccc(C(F)(F)F)c3)C(=O)N2CC(=O)NCc2ccc(=O)[nH]c2)cc1 (stereo not drawn) [Example 36.52] and Cn1cc(NC(=O)CN2C(=O)N(c3cccc(C(F)(F)F)c3)C3=C(C(=O)CCC3)C2c2ccc(C#N)cc2)ccc1=O (stereo not drawn) [Example 36.53] are within 1.5-fold of each other in IC50: 11.7 nM for the first, 10.7 nM for the second.

Going from N#Cc1ccc(C2C3=C(CCCC3=O)N(c3cccc(C(F)(F)F)c3)C(=O)N2CC(=O)N2CCN(C3CC3)CC2)cc1 (stereo not drawn) [Example 36.55] to N#Cc1ccc(C2C3=C(CCCC3=O)N(c3cccc(C(F)(F)F)c3)C(=O)N2CC(=O)N2CCN3CCCC3C2)cc1 (stereo not drawn) [Example 36.56], the IC50 falls from 21.6 nM to 8 nM (2.7-fold). The second is the more potent here.

CN1C(=O)CCC1CNC(=O)CN1C(=O)N(c2cccc(C(F)(F)F)c2)C2=C(C(=O)CCC2)C1c1ccc(C#N)cc1 (stereo not drawn) [Example 36.57] and CN1CC(CNC(=O)CN2C(=O)N(c3cccc(C(F)(F)F)c3)C3=C(C(=O)CCC3)C2c2ccc(C#N)cc2)CC1=O (stereo not drawn) [Example 36.59] are within 1.5-fold of each other in IC50: 10.4 nM for the first, 8.6 nM for the second.

Going from N#Cc1ccc(C2C3=C(CCCC3=O)N(c3cccc(C(F)(F)F)c3)C(=O)N2CC(=O)NCCN2CCCC2=O)cc1 (stereo not drawn) [Example 36.58] to CN(CCN1CCCC1=O)C(=O)CN1C(=O)N(c2cccc(C(F)(F)F)c2)C2=C(C(=O)CCC2)C1c1ccc(C#N)cc1 (stereo not drawn) [Example 36.67], the IC50 falls from 10 nM to 4.2 nM (2.4-fold). The second is the more potent here.

Compared with CC(=O)N1CCN(C(=O)CN2C(=O)N(c3cccc(C(F)(F)F)c3)C3=C(C(=O)CCC3)C2c2ccc(C#N)cc2)CC1 (stereo not drawn) [Example 36.60], CS(=O)(=O)N1CCN(C(=O)CN2C(=O)N(c3cccc(C(F)(F)F)c3)C3=C(C(=O)CCC3)C2c2ccc(C#N)cc2)CC1 (stereo not drawn) [Example 36.75] is 1.5-fold lower in IC50: 3.7 nM for the first, 2.4 nM for the second. The second is the more potent here.

First: N#Cc1ccc(C2C3=C(CCCC3=O)N(c3cccc(C(F)(F)F)c3)C(=O)N2CC(=O)NCCN2CCOCC2)cc1 (stereo not drawn) [Example 36.63]
Second: CN(CCN1CCOCC1)C(=O)CN1C(=O)N(c2cccc(C(F)(F)F)c2)C2=C(C(=O)CCC2)C1c1ccc(C#N)cc1 (stereo not drawn) [Example 36.68]
The IC50 of the first is 1.6-fold higher: 13.9 nM for the first, 8.7 nM for the second. The second is the more potent here.

Going from Cc1nc2c(o1)CN(C(=O)CN1C(=O)N(c3cccc(C(F)(F)F)c3)C3=C(C(=O)CCC3)C1c1ccc(C#N)cc1)CC2 (stereo not drawn) [Example 36.65] to N#Cc1ccc(C2C3=C(CCCC3=O)N(c3cccc(C(F)(F)F)c3)C(=O)N2CC(=O)N2CCc3[nH]c(=O)ccc3C2)cc1 (stereo not drawn) [Example 36.71], the IC50 falls from 16.2 nM to 2.2 nM (7.4-fold).

First: CN1CCC2(CCN(C(=O)CN3C(=O)N(c4cccc(C(F)(F)F)c4)C4=C(C(=O)CCC4)C3c3ccc(C#N)cc3)C2)C1 (stereo not drawn) [Example 36.66]
Second: N#Cc1ccc(C2C3=C(CCCC3=O)N(c3cccc(C(F)(F)F)c3)C(=O)N2CC(=O)N2CCC3(CC2)CNC(=O)O3)cc1 (stereo not drawn) [Example 36.74]
The IC50 of the first is 2.8-fold higher: 5.8 nM for the first, 2.1 nM for the second.

CN(C(=O)CN1C(=O)N(c2cccc(C(F)(F)F)c2)C2=C(C(=O)CCC2)C1c1ccc(C#N)cc1)C1CCS(=O)(=O)C1 (stereo not drawn) [Example 36.69] and CS(=O)(=O)C1CCN(C(=O)CN2C(=O)N(c3cccc(C(F)(F)F)c3)C3=C(C(=O)CCC3)C2c2ccc(C#N)cc2)C1 (stereo not drawn) [Example 36.70] are within 1.5-fold of each other in IC50: 3.1 nM for the first, 2.3 nM for the second.

Compared with N#Cc1ccc(C2C3=C(CCCC3=O)N(c3cccc(C(F)(F)F)c3)C(=O)N2CC(=O)N2CCN3C(=O)CCCC3C2)cc1 (stereo not drawn) [Example 36.72], N#Cc1ccc(C2C3=C(CCCC3=O)N(c3cccc(C(F)(F)F)c3)C(=O)N2CC(=O)N2CC(=O)N3CCCCC3C2)cc1 (stereo not drawn) [Example 36.73] is 9.6-fold higher in IC50: 3.7 nM for the first, 35.5 nM for the second. The first is the more potent here.

Compared with CS(=O)(=O)c1ccc(CNC(=O)N2C(=O)N(c3cccc(C(F)(F)F)c3)C3=C(C(=O)CCC3)C2c2ccc(C#N)cc2)cc1 (stereo not drawn) [Example 37, 4-(4-Cyanophenyl)-N-(4-(methylsulfonyl)benzyl)-2,5-dioxo-1-(3-(trifluoromethyl)-phenyl)-1,2,5,6,7,8-hexahydroquinazoline-3(4H)-carboxamide], Cn1ccc(CNC(=O)N2C(=O)N(c3cccc(C(F)(F)F)c3)C3=C(C(=O)CCC3)C2c2ccc(C#N)cc2)n1 (stereo not drawn) [Example 39.13] is higher in IC50: less than 1 nM for the first, 1 nM for the second. The first is the more potent here.

First: CN(C)C(=O)N1C(=O)N(c2cccc(C(F)(F)F)c2)C2=C(C(=O)CCC2)C1c1ccc(C#N)cc1 (stereo not drawn) [Example 38, 4-(4-Cyanophenyl)-N,N-dimethyl-2,5-dioxo-1-(3-(trifluoromethyl)phenyl)-1,2,5,6,7,8-hexahydroquinazoline-3(4H)-carboxamide]
Second: CN(C)CCN(C)C(=O)N1C(=O)N(c2cccc(C(F)(F)F)c2)C2=C(C(=O)CCC2)C1c1ccc(C#N)cc1 (stereo not drawn) [Example 39.11]
The IC50 of the first is 2.9-fold higher: 67.1 nM for the first, 23.2 nM for the second.

COCCNC(=O)N1C(=O)N(c2cccc(C(F)(F)F)c2)C2=C(C(=O)CCC2)C1c1ccc(C#N)cc1 (stereo not drawn) [Example 39, 4-(4-Cyanophenyl)-N-(2-methoxyethyl)-2,5-dioxo-1-(3-(trifluoromethyl)phenyl)-1,2,5,6,7,8-hexahydroquinazoline-3(4H)-carboxamide] and CCCNC(=O)N1C(=O)N(c2cccc(C(F)(F)F)c2)C2=C(C(=O)CCC2)C1c1ccc(C#N)cc1 (stereo not drawn) [Example 39.2] are the same in IC50: 1 nM for the first, 1 nM for the second.

First: CNC(=O)N1C(=O)N(c2cccc(C(F)(F)F)c2)C2=C(C(=O)CCC2)C1c1ccc(C#N)cc1 (stereo not drawn) [Example 39.1]
Second: C[S+]([O-])CCNC(=O)N1C(=O)N(c2cccc(C(F)(F)F)c2)C2=C(C(=O)CCC2)C1c1ccc(C#N)cc1 (stereo not drawn) [Example 39.12]
The IC50 of the first is higher: 1.2 nM for the first, less than 1 nM for the second.

Compared with N#Cc1ccc(C2C3=C(CCCC3=O)N(c3cccc(C(F)(F)F)c3)C(=O)N2C(=O)N2CC(O)C2)cc1 (stereo not drawn) [Example 39.4], COC1CCN(C(=O)N2C(=O)N(c3cccc(C(F)(F)F)c3)C3=C(C(=O)CCC3)C2c2ccc(C#N)cc2)C1 (stereo not drawn) [Example 39.10] is 4.1-fold higher in IC50: 13.4 nM for the first, 54.8 nM for the second. The first is the more potent here.

N#Cc1ccc(C2C3=C(CCCC3=O)N(c3cccc(C(F)(F)F)c3)C(=O)N2C(=O)NC2COC2)cc1 (stereo not drawn) [Example 39.5] and N#Cc1ccc(C2C3=C(CCCC3=O)N(c3cccc(C(F)(F)F)c3)C(=O)N2C(=O)NCC2CCOC2)cc1 (stereo not drawn) [Example 39.9] cannot be ordered by IC50: less than 1 nM for the first, less than 1 nM for the second.

N#Cc1ccc(C2C3=C(CCCC3=O)N(c3cccc(C(F)(F)F)c3)C(=O)N2C(=O)NCCCO)cc1 (stereo not drawn) [Example 39.6] and CN1CCC(NC(=O)N2C(=O)N(c3cccc(C(F)(F)F)c3)C3=C(C(=O)CCC3)C2c2ccc(C#N)cc2)C1=O (stereo not drawn) [Example 39.15] cannot be ordered by IC50: less than 1 nM for the first, less than 1 nM for the second.

First: N#Cc1ccc(C2C3=C(CCCC3=O)N(c3cccc(C(F)(F)F)c3)C(=O)N2C(=O)N2CCOCC2)cc1 (stereo not drawn) [Example 39.7]
Second: CN(C(=O)N1C(=O)N(c2cccc(C(F)(F)F)c2)C2=C(C(=O)CCC2)C1c1ccc(C#N)cc1)c1cnn(C)c1 (stereo not drawn) [Example 39.14]
The IC50 of the first is 4.2-fold higher: 63.3 nM for the first, 15 nM for the second. The second is the more potent here.

— US9115093B2, “Substituted bicyclic dihydropyrimidinones and their use as inhibitors of neutrophil elastase activity” (Boehringer Ingelheim International GmbH, priority 2013, dated 2015)
